{"source": "patent US20160219881A1", "about": "“HERBICIDALLY ACTIVE 2-HALOGEN-4-ALKYNYL-PHENYL-PYRAZOLIDINE-DIONE OR PYRROLIDINE-DIONE DERIVATIVES” (SYNGENTA LIMITED, priority 2013, published 2016)", "format_in_all_cases": "in vivo", "key": {"[1]": {"test_system": "Brachiaria plantaginea (BRAPL)", "assay": "Biological Example 3 (Test 2 glasshouse assay), post-emergence herbicidal activity", "method": "(§1) Seeds of a variety of monocotyledonous and dicotyledonous test plants are sown in standard soil in pots. The plants are cultivated for one day (for pre-emergence) or for about 12 days (range=10-13 days) (for post-emergence) under controlled conditions in a glasshouse (warm climate species at 24/18° C., cool climate species at 20/16° C., both at day/night; 16 hours light; 65% humidity).\n(§2) An “instant formulation”, known as the “IF50”, containing 50 g/litre (i.e. 5% w/v) of the “technical” (i.e. unformulated) active ingredient is prepared by dissolving the active ingredient in a mixture of organic solvents and emulsifier, details of which are provided in the Table below. This IF50 is then mixed with a small, variable amount of acetone to aid dissolution, before addition of a 0.2% v/v aqueous solution of the adjuvant X-77 (which is a mixture of alkyl aryl polyoxyethylene glycols and free fatty acids in isopropanol, CAS Registry number 11097-66-8), as the aqueous diluent, to form an aqueous spray solution which contains a predetermined concentration of the active ingredient (which varies depending on the application rate of the active ingredient to the plants) and 0.2% v/v of the adjuvant X-77. This aqueous spray solution is then sprayed onto the plants, after one day's cultivation (for pre-emergence) or after about 12 days' cultivation (for post-emergence).\n(§3) The test plants are then grown on, in a glasshouse (greenhouse) under controlled conditions (at either 24/18° C. or 20/16° C. (day/night) as mentioned above; 16 hours light; 65% humidity) and are watered twice daily. Either 15 days after application of the test compound (15 DAA) (for post-emergence), or 20 days after application of the test compound (20 DAA) (for pre-emergence), the test plants are evaluated visually, and an assessed percentage phytotoxicity score is given for each compound application on each plant species (where 100%=total damage to plant; 0%=no damage to plant).\n(§4) Cool climate crop plants: Triticum aestivum (TRZAW, winter wheat), Brassica napus (BRSNN, rape, also called oilseed rape or rapeseed), Beta vulgaris (BEAVA, sugar beet). Warm climate crop plants: Glycine max (GLXMA, soybean). Cool climate (“cool season”) grassy monocotyledonous weeds: Alopecurus myosuroides (ALOMY), Avena fatua (AVEFA), Lolium perenne (LOLPE). Warm climate (“warm season”) grassy monocotyledonous weeds: Setaria faberi (SETFA), SORVU (Sorghum bicolor (L.) Moench ssp. Bicolor, or Sorghum vulgare Pers.), Digitaria sanguinalis (DIGSA), Echinochloa crus-galli (ECHCG), and Brachiaria plantaginea (BRAPL)."}, "[2]": {"test_system": "Glycine max (GLXMA, soybean)", "assay": "Biological Example 3 (Test 2 glasshouse assay), post-emergence herbicidal activity", "method": "as §1, §2, §3, §4"}, "[3]": {"test_system": "Echinochloa crus-galli (ECHCG)", "assay": "Biological Example 3 (Test 2 glasshouse assay), post-emergence herbicidal activity", "method": "as §1, §2, §3, §4"}, "[4]": {"test_system": "SORVU (Sorghum bicolor (L.) Moench ssp. Bicolor, or Sorghum vulgare Pers.)", "assay": "Biological Example 3 (Test 2 glasshouse assay), post-emergence herbicidal activity", "method": "as §1, §2, §3, §4"}, "[5]": {"test_system": "Beta vulgaris (BEAVA, sugar beet)", "assay": "Biological Example 3 (Test 2 glasshouse assay), post-emergence herbicidal activity", "method": "as §1, §2, §3, §4"}, "[6]": {"test_system": "Alopecurus myosuroides (ALOMY)", "assay": "Biological Example 3 (Test 2 glasshouse assay), post-emergence herbicidal activity", "method": "as §1, §2, §3, §4"}, "Lolium perenne (LOLPE)": {"test_system": "Lolium perenne (LOLPE)", "assay": "Biological Example 3 (Test 2 glasshouse assay), post-emergence herbicidal activity", "method": "as §1, §2, §3, §4"}, "Setaria faberi (SETFA)": {"test_system": "Setaria faberi (SETFA)", "assay": "Biological Example 3 (Test 2 glasshouse assay), post-emergence herbicidal activity", "method": "as §1, §2, §3, §4"}, "[7]": {"test_system": "Triticum aestivum (TRZAW, winter wheat)", "assay": "Biological Example 3 (Test 2 glasshouse assay), post-emergence herbicidal activity", "method": "as §1, §2, §3, §4"}, "[8]": {"test_system": "Digitaria sanguinalis (DIGSA)", "assay": "Biological Example 3 (Test 2 glasshouse assay), post-emergence herbicidal activity", "method": "as §1, §2, §3, §4"}, "[9]": {"test_system": "Brassica napus (BRSNN, rape)", "assay": "Biological Example 3 (Test 2 glasshouse assay), post-emergence herbicidal activity", "method": "as §1, §2, §3, §4"}, "[10]": {"test_system": "Echinochloa crus-galli (ECHCG)", "assay": "Test 1A glasshouse assay, post-emergence herbicidal activity", "settings": "312 h, 13 days after application, read-out: Post-Emergence Herbicidal Activity (% Phytotoxicity) ECHCG", "method": "(§5) Seeds of a variety of test species are sown in standard soil (usually sandy soil) in pots. After cultivation for one day (pre-emergence) or after 8 days cultivation (post-emergence) under controlled conditions in a glasshouse (at 24/16° C., day/night; 14 hours light; 65% humidity), the plants are sprayed with an aqueous spray solution derived from the formulation of the technical active ingredient (compound) in acetone/water (50:50) solution containing 0.5% Tween 20 (polyoxyethylene sorbitan monolaurate, CAS RN 9005-64-5). The test plants are then grown under controlled conditions in a glasshouse (at 24/16° C., day/night; 14 hours light; 65% humidity) and watered twice daily. 13 days after application of the test compounds, for pre- and post-emergence, the test is evaluated visually for percentage phytotoxicity to each plant (where 100%=total damage to plant; 0%=no damage to plant).\n(§6) Alopecurus myosuroides (ALOMY), Setaria faberi (SETFA), Echinochloa crus-galli (ECHCG), Amaranthus retroflexus (AMARE), and Abutilon theophasti Medik. (ABUTH, common English name “velvetleaf”). Of these, Alopecurus myosuroides (ALOMY), Setaria faberi (SETFA), and Echinochloa crus-galli (ECHCG) are grassy monocotyledonous weeds. […]"}, "[11]": {"test_system": "Alopecurus myosuroides (ALOMY)", "assay": "Test 1A glasshouse assay, post-emergence herbicidal activity", "settings": "312 h, 13 days after application, read-out: Post-Emergence Herbicidal Activity (% Phytotoxicity) ALOMY", "method": "as §5, §6"}}, "data": [{"compound": "CC#Cc1cc(C)c(-c2c(OC(=O)C(C)(C)C)n(C)n(C)c2=O)c(C)c1", "note": "[Compound P1]", "values": [{"measurement": "Post-Emergence Herbicidal Activity (Percentage Phytotoxicity) BRAPL", "setting": "[1]; 8 g/ha (rate by row order)", "result": 60, "unit": "%"}, {"measurement": "Post-Emergence Herbicidal Activity (Percentage Phytotoxicity) BRAPL", "setting": "[1]; 30 g/ha (rate by row order)", "result": 70, "unit": "%"}, {"measurement": "Post-Emergence Herbicidal Activity (Percentage Phytotoxicity) BRAPL", "setting": "[1]; 125 g/ha (rate by row order)", "result": 100, "unit": "%"}, {"measurement": "Post-Emergence Herbicidal Activity (Percentage Phytotoxicity) GLXMA", "setting": "[2]; 8 g/ha", "result": 10, "unit": "%"}, {"measurement": "Post-Emergence Herbicidal Activity (Percentage Phytotoxicity) GLXMA", "setting": "[2]; 30 g/ha", "result": 30, "unit": "%"}, {"measurement": "Post-Emergence Herbicidal Activity (Percentage Phytotoxicity) GLXMA", "setting": "[2]; 125 g/ha", "result": 40, "unit": "%"}, {"measurement": "Post-Emergence Herbicidal Activity (Percentage Phytotoxicity) ECHCG", "setting": "[3]; 8 g/ha (rate by row order)", "result": 20, "unit": "%"}, {"measurement": "Post-Emergence Herbicidal Activity (Percentage Phytotoxicity) ECHCG", "setting": "[3]; 30 g/ha (rate by row order)", "result": 70, "unit": "%"}, {"measurement": "Post-Emergence Herbicidal Activity (Percentage Phytotoxicity) ECHCG", "setting": "[3]; 125 g/ha (rate by row order)", "result": 100, "unit": "%"}, {"measurement": "Post-Emergence Herbicidal Activity (Percentage Phytotoxicity) SORVU", "setting": "[4]; 8 g/ha (rate by row order)", "result": 50, "unit": "%"}, {"measurement": "Post-Emergence Herbicidal Activity (Percentage Phytotoxicity) SORVU", "setting": "[4]; 30 g/ha (rate by row order)", "result": 60, "unit": "%"}, {"measurement": "Post-Emergence Herbicidal Activity (Percentage Phytotoxicity) SORVU", "setting": "[4]; 125 g/ha (rate by row order)", "result": 80, "unit": "%"}, {"measurement": "Post-Emergence Herbicidal Activity (Percentage Phytotoxicity) BEAVA", "setting": "[5]; 8 g/ha", "result": 30, "unit": "%"}, {"measurement": "Post-Emergence Herbicidal Activity (Percentage Phytotoxicity) BEAVA", "setting": "[5]; 30 g/ha", "result": 10, "unit": "%"}, {"measurement": "Post-Emergence Herbicidal Activity (Percentage Phytotoxicity) BEAVA", "setting": "[5]; 125 g/ha", "result": 40, "unit": "%"}, {"measurement": "Post-Emergence Herbicidal Activity (Percentage Phytotoxicity) ALOMY", "setting": "[6]; 8 g/ha", "result": 40, "unit": "%"}, {"measurement": "Post-Emergence Herbicidal Activity (Percentage Phytotoxicity) ALOMY", "setting": "[6]; 30 g/ha", "result": 60, "unit": "%"}, {"measurement": "Post-Emergence Herbicidal Activity (Percentage Phytotoxicity) ALOMY", "setting": "[6]; 125 g/ha", "result": 70, "unit": "%"}, {"measurement": "Post-Emergence Herbicidal Activity (Percentage Phytotoxicity) LOLPE", "setting": "Lolium perenne (LOLPE); 8 g/ha", "result": 30, "unit": "%"}, {"measurement": "Post-Emergence Herbicidal Activity (Percentage Phytotoxicity) LOLPE", "setting": "Lolium perenne (LOLPE); 30 g/ha", "result": 50, "unit": "%"}, {"measurement": "Post-Emergence Herbicidal Activity (Percentage Phytotoxicity) LOLPE", "setting": "Lolium perenne (LOLPE); 125 g/ha", "result": 80, "unit": "%"}, {"measurement": "Post-Emergence Herbicidal Activity (Percentage Phytotoxicity) SETFA", "setting": "Setaria faberi (SETFA); 8 g/ha (rate by row order)", "result": 20, "unit": "%"}, {"measurement": "Post-Emergence Herbicidal Activity (Percentage Phytotoxicity) SETFA", "setting": "Setaria faberi (SETFA); 30 g/ha (rate by row order)", "result": 90, "unit": "%"}, {"measurement": "Post-Emergence Herbicidal Activity (Percentage Phytotoxicity) SETFA", "setting": "Setaria faberi (SETFA); 125 g/ha (rate by row order)", "result": 100, "unit": "%"}, {"measurement": "Post-Emergence Herbicidal Activity (Percentage Phytotoxicity) TRZAW", "setting": "[7]; 8 g/ha", "result": 0, "unit": "%"}, {"measurement": "Post-Emergence Herbicidal Activity (Percentage Phytotoxicity) TRZAW", "setting": "[7]; 30 g/ha", "result": 0, "unit": "%"}, {"measurement": "Post-Emergence Herbicidal Activity (Percentage Phytotoxicity) TRZAW", "setting": "[7]; 125 g/ha", "result": 70, "unit": "%"}, {"measurement": "Post-Emergence Herbicidal Activity (Percentage Phytotoxicity) DIGSA", "setting": "[8]; 8 g/ha (rate by row order)", "result": 80, "unit": "%"}, {"measurement": "Post-Emergence Herbicidal Activity (Percentage Phytotoxicity) DIGSA", "setting": "[8]; 30 g/ha (rate by row order)", "result": 90, "unit": "%"}, {"measurement": "Post-Emergence Herbicidal Activity (Percentage Phytotoxicity) DIGSA", "setting": "[8]; 125 g/ha (rate by row order)", "result": 100, "unit": "%"}, {"measurement": "Post-Emergence Herbicidal Activity (Percentage Phytotoxicity) BRSNN", "setting": "[9]; 8 g/ha", "result": 0, "unit": "%"}, {"measurement": "Post-Emergence Herbicidal Activity (Percentage Phytotoxicity) BRSNN", "setting": "[9]; 30 g/ha", "result": 80, "unit": "%"}, {"measurement": "Post-Emergence Herbicidal Activity (Percentage Phytotoxicity) BRSNN", "setting": "[9]; 125 g/ha", "result": 80, "unit": "%"}, {"measurement": "inhibition at 30 g/ha", "setting": "[10]; 30 g/ha", "result": 80, "unit": "%"}, {"measurement": "inhibition at 250 g/ha", "setting": "[10]; 250 g/ha", "result": 100, "unit": "%"}, {"measurement": "inhibition at 30 g/ha", "setting": "[11]; 30 g/ha", "result": 80, "unit": "%"}, {"measurement": "inhibition at 250 g/ha", "setting": "[11]; 250 g/ha", "result": 90, "unit": "%"}]}]}
